Target: Sucrase-isomaltase, intestinal (Rattus norvegicus, UniProt P23739)
Assay: In Vitro α-Glucosidase Inhibitory Assay
Conditions: pH 6.8
Procedure: Rat intestinal acetone powder in normal saline (100: 1; w/v) was sonicated thoroughly and the supernatant was used as a source of crude intestinal α-glucosidase after centrifugation. In brief, […] of test sample ( 5 mg/mL DMSO solution) was reconstituted in […] of 100 mM phosphate buffer (pH 6.8) in a 96-well microplate and incubated with […] of crude intestinal α-glucosidase for 5 min before […] substrate (5 mM pNPG prepared in same buffer) was added. Release of p-nitrophenol was measured at 405 nm spectrophotometrically (SpectraMax Plus384; Molecular Devices Corp., Sunnyvale, CA, USA) 5 min after incubation withsubstrate. Individual blanks for test samples were prepared to correct background absorbance where substrate was replaced with […] of buffer. The control samplecontained […] of dimethylsulfoxide (DMSO) in place of test sample.

Sucrase-isomaltase, intestinal, sequence (P23739 1-1013 limits assumed): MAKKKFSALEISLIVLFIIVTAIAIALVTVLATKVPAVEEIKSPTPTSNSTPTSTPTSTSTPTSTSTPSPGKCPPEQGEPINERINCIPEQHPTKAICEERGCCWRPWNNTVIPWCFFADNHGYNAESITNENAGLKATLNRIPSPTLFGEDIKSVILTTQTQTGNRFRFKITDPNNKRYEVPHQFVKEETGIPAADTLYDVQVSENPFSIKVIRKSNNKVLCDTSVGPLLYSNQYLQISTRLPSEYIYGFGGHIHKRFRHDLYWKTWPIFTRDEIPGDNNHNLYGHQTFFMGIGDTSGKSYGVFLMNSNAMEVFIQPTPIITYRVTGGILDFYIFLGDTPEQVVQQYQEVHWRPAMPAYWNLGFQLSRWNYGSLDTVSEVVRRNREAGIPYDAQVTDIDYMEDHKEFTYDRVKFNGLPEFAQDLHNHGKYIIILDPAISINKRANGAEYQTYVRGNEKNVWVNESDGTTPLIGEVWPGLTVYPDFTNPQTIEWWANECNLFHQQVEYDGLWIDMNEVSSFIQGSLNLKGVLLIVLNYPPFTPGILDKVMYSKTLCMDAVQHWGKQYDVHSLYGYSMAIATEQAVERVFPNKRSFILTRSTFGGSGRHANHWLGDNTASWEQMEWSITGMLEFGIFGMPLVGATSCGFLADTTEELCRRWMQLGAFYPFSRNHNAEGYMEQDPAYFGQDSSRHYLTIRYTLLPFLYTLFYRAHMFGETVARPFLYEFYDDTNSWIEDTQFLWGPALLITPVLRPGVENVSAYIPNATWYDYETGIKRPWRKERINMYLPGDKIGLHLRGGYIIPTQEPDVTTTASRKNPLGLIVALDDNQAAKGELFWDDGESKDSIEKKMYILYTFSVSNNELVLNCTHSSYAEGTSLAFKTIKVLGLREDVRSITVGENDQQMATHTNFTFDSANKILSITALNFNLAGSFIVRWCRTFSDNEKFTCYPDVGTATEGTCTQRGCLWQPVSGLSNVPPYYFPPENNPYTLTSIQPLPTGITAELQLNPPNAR
Sucrase-isomaltase, intestinal, sequence (P23739 1014-1841 limits assumed): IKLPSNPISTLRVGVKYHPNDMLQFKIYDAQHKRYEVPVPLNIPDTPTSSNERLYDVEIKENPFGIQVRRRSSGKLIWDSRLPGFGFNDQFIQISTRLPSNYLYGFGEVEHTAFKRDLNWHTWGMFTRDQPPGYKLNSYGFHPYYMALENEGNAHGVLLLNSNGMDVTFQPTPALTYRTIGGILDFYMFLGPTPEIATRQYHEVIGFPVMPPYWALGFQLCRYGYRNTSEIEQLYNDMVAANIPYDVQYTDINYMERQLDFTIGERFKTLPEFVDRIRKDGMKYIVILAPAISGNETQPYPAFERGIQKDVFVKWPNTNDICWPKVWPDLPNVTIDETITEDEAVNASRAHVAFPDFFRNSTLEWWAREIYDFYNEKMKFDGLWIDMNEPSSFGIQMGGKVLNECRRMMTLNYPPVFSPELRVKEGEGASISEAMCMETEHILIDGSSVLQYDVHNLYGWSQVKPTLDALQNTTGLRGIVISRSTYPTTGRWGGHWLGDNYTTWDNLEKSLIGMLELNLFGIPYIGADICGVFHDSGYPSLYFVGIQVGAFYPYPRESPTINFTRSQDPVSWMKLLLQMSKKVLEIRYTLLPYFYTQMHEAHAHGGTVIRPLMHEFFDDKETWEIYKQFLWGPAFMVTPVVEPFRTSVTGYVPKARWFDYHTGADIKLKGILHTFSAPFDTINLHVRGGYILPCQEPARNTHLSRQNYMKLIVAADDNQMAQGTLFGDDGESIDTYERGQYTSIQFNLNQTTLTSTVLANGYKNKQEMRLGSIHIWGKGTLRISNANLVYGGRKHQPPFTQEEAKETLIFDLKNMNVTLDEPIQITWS

IC50: 99.4 µM
SMILES: O=[N+]([O-])c1ccc2[nH]c(-c3ccncc3)nc2c1 [6-Nitro-2-(4-pyridyl)-1H-benzo[d]imidazole (3e)]

Source: BindingDB's records for doi:10.3109/14756360903017122 (Indian Institute of Chemical Technology, 2010)
